{"source": "patent US20070123518A1", "about": "“Product designed to protentiate the therapeutic effects and to enhance the action of medicinal preparations” (priority 2003, published 2007)", "format_in_all_cases": "in vivo", "key": {"[1]": {"system": "Rat model of adjuvant arthritis", "experiment": "Rat model of adjuvant arthritis (complete Freund's adjuvant), prednisone", "settings": "rats, into the stomach; prednisone 2 mg/kg; activated form D24+D60 2.5mg/kg; combined 10:1", "method": "Rat model of adjuvant arthritis induced by single subplantar injection of 100 μl of complete Freund's adjuvant was applied for evaluation of anti-inflammatory activity of glucocorticosteroid agent—prednisone in following treatment choices: a) therapeutic dose, b) activated (potentiated) form (ultra-low dose), c) combined treatment with therapeutic dose and activated form. Soon after the injection of complete Freund's adjuvant animals (10 rats per group) received prednisone in therapeutic dose, in activated form or their combination (control—distilled water)—for 14 days.\n2 mg/kg prednisone (water solution) was given into the stomach; activated form of prednisone in ultra-low doses—mixture of homeopathic dilutions D24+D60 was injected in the form of water solution at the dose of 2.5mg/kg of animal's body weight into stomach; both forms mixed at 10:1 ratio were injected at one time during combined treatment.\nSeverity of inflammatory damage to each extremity (0 to 4) and overall index of arthritis severity (0 to 16) were assessed once per 1-2 days. Functional disturbances, erythema, edema and deformation of extremities were taken into account. Anti-inflammatory efficacy of the medications was evaluated in accordance with reduction of overall index of arthritis severity by the 2-3rd and 14th days of treatment."}, "[2]": {"system": "patients suffering from generalized anxiety syndrome", "experiment": "Hamilton's scale of anxiety in patients with generalized anxiety syndrome, diazepam", "description": "Benzodiazepines represent reference medications for the treatment of anxious states. However, application of benzodiazepines is frequently associated with adverse effects that require dose reduction to minimal effective doses. Investigation of impacts induced by ultra-low doses of activated form of diazepam on the anxiolytic activity of therapeutic doses of diazepam was accomplished in 20 patients suffering from generalized anxiety syndrome characterized with the anxiety level consistent with at least 20 grades of Hamilton's scale of anxiety. Patients received tablets containing activated form of diazepam in ultra-low doses (homeopathic dilution C200, equivalent concentration—10^−400M mass concentration)—1 tablet 4 times a day for 14 days. Thereafter, beginning from 15th to 30th day of therapy patients were took per oral diazepam at the dose of 2 mg qid day (daily dose—8 mg) followed by administration of ultra-low doses of activated form of the very medication 4 tablets per day for 7 days and by combined treatment implicating simultaneous intake of activated form (4 tablets a day) and diazepam (8 mg per day) for 14 days. Anxiety level was evaluated by means of Hamilton's scale at baseline and after each stage of therapy."}, "[3]": {"system": "rats in conflict situation", "experiment": "Conflict situation model of Vogel, ethanol in drinking bowl", "settings": "solution in the drinking bowl, mixture 10:1 volumetric ratio", "experimental": "Anxiolytic effect was evaluated in accordance with the number of punished water intakes."}, "[4]": {"system": "patients suffering from definite rheumatoid arthritis (oligoarthritis)", "experiment": "Clinical trial in rheumatoid arthritis (oligoarthritis), duration of effect of hydrocortisone injections", "settings": "20 patients, hydrocortisone 20-25 mg peri- or intra-articular; activated form per os over 8 weeks", "method": "Twenty patients suffering from definite rheumatoid arthritis (oligoarthritis) necessitating peri- or intra-articular injections of hydrocortisone were included in the clinical trial of influences of activated form (ultra-low doses) of anti-inflammatory agent—hydrocortisone on the therapeutic activity of hydrocortisone in relation with arthritis manifestations. At baseline all patients required injections of 20-25 mg hydrocortisone 2-3 times a week (up on request). Over 8 weeks patients received activated form of hydrocortisone in ultra-low doses per orally—1 tablet for dissolution in the mouth (activated form—mixture of homeopathic dilutions C12+C30+C200, equivalent concentration 10^−24M mass concentration) together with injections. Impacts of activated form were evaluated in accordance with duration of periods, when patients were independent from hydrocortisone injections."}, "[5]": {"system": "rats in conflict situation", "experiment": "Conflict situation model of Vogel, phenazepam", "method": "Anxiolytic activity of phenazepam was studied by conflict situation model of Vogel J., 1971 in rats. Phenazepam was applied in 1) therapeutic dose, 2) activated form or 3) combination of therapeutic dose of phenazepam and activated form of the same medication. Therapeutic doses of Phenazepam (1 mg/kg) were injected intraperitoneally; activated form containing the mixture of homeopathic dilutions C12+C30+C200, was given at 2.5 ml/kg of animal's body weight intraperitoneally; combined treatment included simultaneous injections of both forms in two different syringes. The effect was evaluated after 20 minutes following to medication injections by the quantity of punished water intakes."}}, "data": [{"smiles": "C[C@]12C=CC(=O)C=C1CC[C@@H]1[C@@H]2C(=O)C[C@@]2(C)[C@H]1CC[C@]2(O)C(=O)CO", "note": "[Prednisone, prednisone]", "values": [{"measurement": "Arthritis severity index by 14th day of therapy", "setting": "[1]", "result": "5.4 ± 1.7", "unit": "grades"}, {"measurement": "Arthritis severity index by the 2-3rd day of therapy", "setting": "[1]", "result": "2.1 ± 0.4", "unit": "grades"}]}, {"smiles": "CN1C(=O)CN=C(c2ccccc2)c2cc(Cl)ccc21", "note": "[diazepam]", "values": [{"measurement": "Overall level of anxiety in accordance with Hamilton's scale", "setting": "[2]; 20 patients, after the stage of therapy: activated form 2 weeks, then diazepam 8 mg/day, last stage combined 14 days", "result": "16.2 ± 2.5", "unit": "grades"}, {"measurement": "improvement versus baseline", "setting": "[2]; Hamilton's scale, after the stage of therapy", "result": 26, "unit": "%"}, {"measurement": "anxiolytic effect (in words)", "setting": "[2]; dynamic changes in anxiety level", "result": "does not yield achievement of pronounced decline of anxiety"}]}, {"smiles": "CCO", "note": "[Ethanol 10%, ethanol]", "values": [{"measurement": "Number of punished water intakes", "setting": "[3]", "result": "317.2 ± 41.0"}]}, {"smiles": "C[C@]12CCC(=O)C=C1CC[C@@H]1[C@@H]2[C@@H](O)C[C@@]2(C)[C@H]1CC[C@]2(O)C(=O)CO", "note": "[Hydrocortisone, hydrocortisone]", "values": [{"measurement": "Duration effects of injections (time lag between injections \"upon request\")", "setting": "[4]", "result": "2.8 ± 0.3", "unit": "days"}]}, {"smiles": "O=C1CN=C(c2ccccc2Cl)c2cc(Br)ccc2N1", "note": "[Phenazepam, phenazepam]", "values": [{"measurement": "Number of punished water intakes", "setting": "[5]; rats, intraperitoneally, 20 minutes after injection, phenazepam 1 mg/kg, activated form 2.5 ml/kg", "result": "415.67 ± 113.96"}, {"measurement": "anxiolytic activity (in words)", "setting": "[5]; versus control", "result": "possesses anxiolytic activity"}]}]}
